The record followed here is ChEMBL document CHEMBL3507680, “University of Dundee, Gates Library screen for HepG2 cell viability”.

Molecules are shown by their SMILES.

The data set can be described thus: Human HepG2 cell viability assay in 384 well format. Format: toxicity, cell-based. Set-up: dose 125 nL, time 70.5 hour; concentration not given beside the values. Particulars: HepG2 cells, read-out: Inhibition.

For `CC(=O)N1CCC(NC(C)c2cnn(-c3ccc(F)cc3F)c2C)CC1` (centres undefined), the cytotoxicity at 70.5 h was -5.65%.
Consider `COCCN1CC(Nc2nc(C(C)C)nc3c2cnn3C)CC1=O` (centres undefined), for which the cytotoxicity at 70.5 h was -0.509%.
In the case of `Cc1nn(C)c(C)c1CN(C)C(C(=O)O)c1ccc(F)cc1F` (centres undefined), the cytotoxicity at 70.5 h was -1.85%.
`CCC1CCC(NCCN2CCOCC2)CC1` (centres undefined): the cytotoxicity at 70.5 h is -6.57%.
Turning to `CC1CCCN(Cc2cccc(C(=O)Nc3nccs3)c2)C1` (centres undefined), the cytotoxicity at 70.5 h is -11.3%.
Regarding `Cc1cccnc1CNCC1(O)CCCN(CC2CCC2)C1=O` (centres undefined), the cytotoxicity at 70.5 h came to 2.29%.
For `CN(CCNC(=O)c1cnc(-c2ccccc2)nc1)S(C)(=O)=O` the value was 5.47%.
As to `Cn1ncnc1-c1ccnc(NCc2ccccn2)n1`, the cytotoxicity at 70.5 h came out at 9.26%.
In the case of `O=C(CCN1CCCO1)N1CCCC(CO)(CCCc2ccccc2)C1` (centres undefined), the cytotoxicity at 70.5 h was -8.66%.
Then `O=C1OC2(CCN(C(=O)C3NCCc4[nH]cnc43)CC2)c2ccccc21` (centres undefined), with -9.73%.
On to `Cc1cc(NC(C)c2nncn2C2CCCC2)n2nc(C)c(C)c2n1` (centres undefined), for which the cytotoxicity at 70.5 h was -12.4%.
On to `CC[C@H]1COCCN1C(=O)c1ccc(OC)c(N2CCOCC2)c1`, for which the cytotoxicity at 70.5 h is -10.3%.
Then `OCCN(Cc1ccccc1)Cc1ccsc1`, with -9.98%; and `O=c1c(CN2CCOCC2)coc2ccc(Cl)cc12`, with -8.39%.
Turning to `Cc1nc(CCN)cc(N2CCOc3ccc(Cl)cc3C2)n1`, the cytotoxicity at 70.5 h is -5.61%.
Then `CN1CCN(Cc2ccc(Cl)cc2)CC1C(=O)O` (centres undefined), with -6.51%; and `Cn1ncc2c(N3CCN(CCC(N)=O)CC3)nc(C3CCCC3)nc21`, with -9.84%; and `O=c1c(CN2CCCCC2)coc2ccc(Cl)cc12`, with -7.22%.
As for `COC(=O)c1ccc(CNC(=O)Cc2csc(C(C)=O)c2)cc1`, the cytotoxicity at 70.5 h was determined as 4.17%.
For `CCCc1nccn1-c1cccc(C(C)O)c1` (centres undefined) the value was -2.3%; for `CNc1ncc(CN(C)c2nc(C)c3ccc(S(C)(=O)=O)cc3n2)cn1`, -6.87%.
As for `CCc1nc(C)c(CN2CCCC(c3nn(C)c(=O)n3CC)C2)[nH]1` (centres undefined), the cytotoxicity at 70.5 h was -6.96%.
For `CCCn1ncc(C(=O)N2CCN(C3Cc4ccccc4C3)CC2)c1C` the value was -0.105%; for `CN(Cc1nc(-c2cccnc2)no1)C(=O)c1c2c(nn1C)CCCC2`, -1.52%.
Take `Cc1nccn1CCC(=O)N1CCCN(c2ccccc2)CC1`: the cytotoxicity at 70.5 h was -6.92%.
For `COc1cc(C)c(C2CC(=O)NCc3nc4sccn4c32)cc1C` (centres undefined) the value was -18%.
Regarding `Cc1ocnc1C(=O)N1CCN(Cc2ccccc2)[C@@H]2CS(=O)(=O)C[C@@H]21`, the cytotoxicity at 70.5 h was -9.03%.
For `O=C(c1scc2c1OCCO2)N1CCOC(CCc2ccccc2)C1` (centres undefined), the cytotoxicity at 70.5 h was 1.27%.
On to `CN(C)c1nc(NCCc2ccnn2C)ncc1F`, for which the cytotoxicity at 70.5 h was determined as 23.5%.
As to `Cc1cc(C(=O)N2C[C@@H](C(=O)O)[C@H](C(C)C)C2)cs1`, the cytotoxicity at 70.5 h is -2.46%.
As to `O=C(C1CCC1)N1CCC(C(=O)N2CCC(c3ccc(F)cc3)C2)CC1` (centres undefined), the cytotoxicity at 70.5 h was 3.33%.
As for `CCCc1ccc(CN2CCN(c3ncccn3)[C@@H]3CS(=O)(=O)C[C@@H]32)o1`, the cytotoxicity at 70.5 h was -8.8%.
With `COCCc1noc(Cn2ccc3ncccc3c2=O)n1`, the cytotoxicity at 70.5 h was -7.6%.
`Cc1nonc1C1CCCN1CCC(=O)N1CCc2ccccc2C1` (centres undefined): the cytotoxicity at 70.5 h stood at 24.4%.
`CCCn1ccnc1CN1CCC(Oc2cccc(F)c2)(C(=O)O)CC1`: the cytotoxicity at 70.5 h is -11%.
Then `CC(Cn1cnc2cn(C)nc2c1=O)Oc1cccnc1` (centres undefined), with 20.4%; and `COc1cccc(CN2CCCC3(CCN(C(CO)CO)C3)C2)c1` (centres undefined), with -7.1%.
Regarding `CC(O)c1cn(CC2CCN(C(=O)c3cccc(N(C)C)c3)CC2)nn1` (centres undefined), the cytotoxicity at 70.5 h is -4.18%.
In the case of `CC(C)(C)N1CC(C(=O)NCc2nc(C3CCCCC3)no2)CC1=O` (centres undefined), the cytotoxicity at 70.5 h was -4.38%.
